Experimental data from US5334761A, “Cationic lipids” (Life Technologies, Inc., priority 1992, dated 1994).

What was measured:
some cell lines [1] = conditions: cited from earlier work; for transfection / delivery of nucleic acids: lipid aggregates or liposomes; for transfection efficiency relative to DOTMA: some cell lines
some cell lines [2] = conditions: cited from earlier work
[3] = % protein (toxicity estimate, Bradford) after transfection; type: cell-based, human; conditions: human, jurkat cells, pSV2CAT, 6 h OPTIMEM
Experimental: (§1) A one-to-one mixture (by weight) of the desired lipid and dioleylphosphatidyl ethanolamine was prepared in CHCl3. The CHCl3 was removed on the rotary evaporator to obtain a thin film of lipid mixture. The mixture was hydrated with enough water to obtain approximately 1.25 mg of lipid per ml of solution. The solution was passed through a microfluidizer twice and diluted to 1 mg/ml. The liposome formulation was then filtered through a 0.2 μ filter. Compound 8 was also formulated without DOPE either by sonication at 1 mg/ml in water or by dissolving a dried lipid film with ethanol and then adding water to give a final concentration of 2.5 mg/ml. Ethanol was 10% of that volume. In some instances, this was further diluted with water to 1 mg/ml, 4% ethanol.
(§2) Baby hamster kidney (BHK-21) , COS-7, HeLa-S3 cells, and normal human fibroblasts isolated from newborn foreskin dermis were grown in Dulbecco's-modified Eagle's medium (DMEM) containing 10% fetal bovine serum (FBS), 2 mM L-glutamine (gln), 0.1 mM MEM nonessential amino acids (NEAA), 100 U/ml penicillin, and 100 μg/ml streptomycin. NIH-3T3 cells were grown in DMEM containing 10% calf serum (CS), 2 mMgln, 0.1 mM NEAA 100 U/ml penicillin, and 100 μg/ml streptomycin. PC12 cells were grown in DMEMcontaining 10% horse serum, 5% FBS, 2 mM gln, 0 1 mMNEAA, 100 U/ml penicillin and 100 μ/ml streptomycin. Jurkat cells (human lymphoid cell line) were grown in RPMI-1640 supplemented with 10% FBS, 2mML-glutamine, 100 U/ml penicillin, and 100 μg/ml streptomycin. Human keratinocytes were isolated from newborn foreskin epidermis and cultured in Keratinocyte Growth Medium (Clonetics, San Diego, Ca.). All cell lines were maintained in a humidified incubator with a 5% CO2 atmosphere at 37° C.
(§3) For transient nuclear expression of pSV2CAT or pCMVCAT in Jurkat cells, cells were washed with Opti-MEM I or serum-free RPMI 1640 containing 2 mM gln and plated in six-well plates at a density of 3×10^6 cells per well in 0.8 ml Opti-MEM I or RPMI 1640. For each transfection, 5 μg pSV2CAT DNA or 2 μg pCMVCAT DNA was diluted in 100 μl Opti-MEM I. Lipids were diluted separately in another 100 μl aliquot of Opti-MEMI. The two solutions were then mixed in a polystyrene tube and incubated for 10-15 min at room temperature. The DNA-liposome complex was added to the cell suspensions and incubated 6 hours at 37° C., after which 4 ml growth medium were added per well (RPMI-1640; 10% FBS). Phorbol myristate acetate (Sigma Chemical Co., St. Louis, Mo.) and phytohemagglutinin (Sigma) were also added to a final concentration of 50 ng/ml and 1 μg/ml, respectively, to activate the cells. Cells were harvested at approximately 48 hours post-transfection by centrifugation. Cell lysates were prepared by resuspending cell pellets at 0° C. in 0.1 M Tris-HC1 pH 8.0 containing 0.1% Triton X-100 and freeze-thawing once. Cell lysates were cleared by centrifugation and assayed for CAT activity.
The "% protein" column indicates the relative amount of protein in the sample tested for CAT activity and therefore provides a way to estimate toxicity of the compounds being tested. The "CAT Activity" column indicates the relative transfection effectiveness of the lipid formulation in the various cell lines. The control sample was a cell culture grown under similar conditions as those that were transfected, but with no DNA or cationic lipid added. Protein was measured using a commercially available Bradford protein assay (BioRad Laboratories, Richmond, Ca.).
Jurkat cells (3 × 10^6 cells) were transfected in OPTIMEM with
μg of pSV2CAT DNA for 6 hours.
DNA-lipid complexes were made in OPTIMEM. Jurkat cells (3 × 10^
cells) were transfected in RPMI1640 with 2 μg of pCMVCAT DNA for 6

Jurkat cells = test: CAT transient transfection; type: cell-based, human; conditions: pSV2CAT, 6 h OPTIMEM
Experimental: as §1, §2
(§4) pSV2CAT (5.0 Kb) was described previously (Gorman, C. M. et al. (1982) Mol. Cell. Biol. 2:1044). pCMVCAT (5.0 Kb) was also described previously (Foecking M. K. and Hofstetter, H. (1986) Gene 45:101). Plasmid DNA was purified by isopycnic centrifugation in CsCl/EtBr gradients after recovery by alkaline lysis (Maniatis, T. et al. (1982) in Molecular Cloning: A Laboratory Manual, Cold Spring Harbor Laboratory, Cold Spring Harbor, N.Y., pp. 90-91).
as §3
(§5) Cell lysates were assayed for CAT activity as described by Neumann et al. (1987) BioTechniques 5:444 using [^14 C]-butyryl coenzyme A (New England Nuclear, Boston, Mass.). The enzyme reactions were incubated for 2 hrs at 37° C., overlayed with 3.0 ml Econofluor (New England Nuclear) and then incubated for an additional 2 hrs to allow diffusion of the acetylated chloramphenicol into the scintillation fluid. CAT activity was determined by measuring radioactivity in a liquid scintillation counter. […]

[4] = tested on: normal human keratinocytes; test: CAT transient transfection; type: cell-based; conditions: for DNA transfection (in words): keratinocytes; for CAT ACTIVITY: 2 μg pSV2CAT, 6 h, 50 μl of 300 μl assayed
Experimental: as §1, §2, §4
(§6) For transient transfection of pSV2CAT DNA or pCMVCAT DNA, cells were plated in 6-well tissue culture dishes (35 mm wells) and incubated overnight to approximately 60% confluency. To transfect cells in one well, 1-2 μg of pSV2CAT DNA or pCMVCAT DNA was diluted in 100 μl Opti-MEM I. Cationic lipids were diluted separately in another 100 μl aliquot of Opti-MEM I. The two solutions were then mixed in a polystyrene tube, incubated for 10-15 min at room temperature to allow the formation of a DNA-liposome complex, and diluted to one ml by adding 0.8 ml Opti-MEM I or DMEM containing 5% fetal bovine serum (FBS), 2 mMgln, 0.1 mMNEAA, and lacking antibiotics. The cells were washed once with Opti-MEM I or serum-free DMEM, and the DNA-liposome complex was added directly to the cells. After a six hr incubation at 37° C., the transfection complexes were removed and two ml of DMEM containing 10% FBS, 2 mMgln, 0.2 mMNEAA, 100 U/ml penicillin, and 100 μg/ml streptomycin, was added to each well. Note: human keratinocytes were cultured and transfected in Keratinocyte Growth Medium. Cells were incubated for an additional 48 hrs and lysed in situ by freeze-thawing once or twice in 300 μl 0.1M Tris-HC1, pH 7.8-8.0 containing 0 1% Triton X-100. Cell lysates were assayed for CAT activity.
as §5

NIH-3T3 cells = test: CAT transient transfection; type: cell-based, mouse; conditions: for DNA transfection (in words): NIH-3T3; for CAT ACTIVITY: 2 μg pSV2CAT, 6 h OPTI MEM serum-free
Experimental: as §1, §2, §4, §6, §5

[5] = % protein (toxicity estimate, Bradford) after transfection; type: cell-based, human; conditions: human, keratinocytes, 2 μg pSV2CAT, 6 h
Experimental: as §1
as §2, with “C. […]” for “C.”
(§7) The "% protein" column indicates the relative amount of protein in the sample tested for CAT activity and therefore provides a way to estimate toxicity of the compounds being tested. […] Protein was measured using a commercially available Bradford protein assay (BioRad Laboratories, Richmond, Ca.). […]

[6] = as above; type: cell-based, mouse; conditions: mouse, nih-3t3 cells; 16 μg lipid; 2 μg pSV2CAT; 6 h OPTI MEM serum-free
Experimental: as §1
(§8) Baby hamster kidney (BHK-21) , COS-7, HeLa-S3 cells, and normal human fibroblasts isolated from newborn foreskin dermis were grown in Dulbecco's-modified Eagle's medium (DMEM) containing 10% fetal bovine serum (FBS), 2 mM L-glutamine (gln), 0.1 mM MEM nonessential amino acids (NEAA), 100 U/ml penicillin, and 100 μg/ml streptomycin. […]
as §7

[7] = as above; type: cell-based; conditions: human, hela-s3 cells, 2 μg pSV2CAT
Experimental: as §1, §8, §7

HeLa-S3 cells = test: CAT transient transfection; type: cell-based; conditions: for CAT ACTIVITY: 2 μg pSV2CAT, 6 h
Experimental: as §1, §2, §4, §6, §5

CCCCCCCCCCCCCCCCCCN(CCCCCCCCCCCCCCCCCC)C(=O)CNC(=O)C(CCCNCCCN)NCCCN (stereo not drawn) [DOGS, 5-carboxyspermylglycine dioctadecylamide]
transfection / delivery of nucleic acids (some cell lines [1]): efficient transfection | transfection efficiency relative to DOTMA (some cell lines [1]): more efficient | toxicity relative to DOTMA (some cell lines [2]): less toxic

CCCCCCCCCCCCCCCC(=O)OCC(COP(=O)(O)OCCNC(=O)C(CCCNCCCN)NCCCN)OC(=O)CCCCCCCCCCCCCCC (stereo not drawn) [DPPES, dipalmitoylphosphatidylethanolamine 5-carboxyspermylamide]
transfection / delivery of nucleic acids (some cell lines [1]): efficient transfection | transfection efficiency relative to DOTMA (some cell lines [1]): more efficient | toxicity relative to DOTMA (some cell lines [2]): less toxic

CCCCCCCC/C=C\CCCCCCCCOCC(C[N+](C)(C)CCNCCCNCCCCNCCCN)OCCCCCCCC/C=C\CCCCCCCC (stereo not drawn) [Compound 5, 1-Propanaminium,N-{2-[[3-[[4-[(3-aminopropyl)amino]butyl]-amino]propyl]amino]ethyl}-n,n-dimethyl-2,3-bis-(9-octadecenyloxy)-, bromide]
viability at 6 h ([3]; 20 μg lipid): 100% | CAT ACTIVITY (Jurkat cells; 20 μg lipid): 1170 CPM/150 μl | DNA transfection (in words) [4]: effective

CC(C)CCC[C@@H](C)[C@H]1CC[C@H]2[C@@H]3CC=C4C[C@@H](OC(=O)NCCN(C)C)CC[C@]4(C)[C@H]3CC[C@]12C [DC-Chol]
transfection efficiency relative to DOTMA (some cell lines [1]): more efficient transfection | toxicity relative to DOTMA (some cell lines [2]): lower toxicity

CCCCCCCC/C=C\CCCCCCCCOCC(C[N+](C)(C)CCN)OCCCCCCCC/C=C\CCCCCCCC (stereo not drawn) [Compound 2, 1-Propanaminium, N-(2-amino)ethyl-N,N-dimethyl-2,3-bis(9-octadecenyloxy)-bromide]
DNA transfection (in words) (NIH-3T3 cells): good activity

CCCCCCCC/C=C\CCCCCCCCOCC(C[N+](C)(C)CCNCCCN)OCCCCCCCC/C=C\CCCCCCCC (stereo not drawn) [Compound 4, 1-Propanaminium, N-[2-[(3-aminopropyl)amino]ethyl]-N,N-dimethyl-2,3-bis(9-octadecenyloxy)-, bromide]
viability at 6 h ([3]; 20 μg lipid): 93% | viability at 6 h ([3]; 30 μg lipid): 100% | viability at 6 h ([5]; 40 μg lipid): 41% | CAT ACTIVITY (Jurkat cells; 20 μg lipid): 2252 CPM/150 μl | CAT ACTIVITY (Jurkat cells; 30 μg lipid): 820 CPM/150 μl | CAT ACTIVITY (NIH-3T3 cells; 24 μg lipid): 3,114 CPM | CAT ACTIVITY ([4]; 40 μg lipid): 20,038 CPM | DNA transfection (in words) [4]: effective

CCCCCCCC/C=C\CCCCCCCCOCC(C[N+](C)(C)CCBr)OCCCCCCCC/C=C\CCCCCCCC (stereo not drawn) [Compound 3, 1-Propanaminium, N-[2-(2-bromo)ethyl]-N,N-dimethyl-2,3-bis(9-octadecenyloxy)-,bromide]
viability at 6 h ([3]; 30 μg lipid): 97% | viability at 6 h [6]: 35% | viability at 6 h ([5]; 10 μg lipid): 42% | viability at 6 h ([7]; 6 μg lipid, DMEM, 5% FBS): 54% | viability at 6 h ([7]; 12 μg lipid, OPTIMEM I, 0% FBS): 43% | CAT ACTIVITY (Jurkat cells; 30 μg lipid): 3008 CPM/150 μl | CAT ACTIVITY (NIH-3T3 cells; 16 μg lipid): 6,074 CPM | DNA transfection (in words) (NIH-3T3 cells): good activity | CAT ACTIVITY ([4]; 10 μg lipid): 10,598 CPM | CAT ACTIVITY (HeLa-S3 cells; 6 μg lipid, DMEM, 5% FBS): 78,798 CPM | CAT ACTIVITY (HeLa-S3 cells; 12 μg lipid, OPTIMEM I, 0% FBS): 29,400 CPM | DNA transfection (in words) (HeLa-S3 cells; HeLa-S3, presence or absence of serum): good activity

CCCCCCCC/C=C\CCCCCCCCOCC(C[N+](C)(C)C)OCCCCCCCC/C=C\CCCCCCCC (stereo not drawn) [DOTMA]
transfection / delivery of nucleic acids (some cell lines [1]): efficient delivery of nucleic acids to some types of cells
